The source of these data is patent US11427556B2, “Urea derivatives as inhibitors of ASK1” (Hepagene Therapeutics (HK) Limited, priority 2017, dated 2022).

SMILES strings stand for the structures.

The target of one assay is T1, Recombinant human ASK1 kinase (Homo sapiens, UniProt Q99683).
T1 construct: purchased Invitrogen Inc
T1 sequence (Q99683 1-1374): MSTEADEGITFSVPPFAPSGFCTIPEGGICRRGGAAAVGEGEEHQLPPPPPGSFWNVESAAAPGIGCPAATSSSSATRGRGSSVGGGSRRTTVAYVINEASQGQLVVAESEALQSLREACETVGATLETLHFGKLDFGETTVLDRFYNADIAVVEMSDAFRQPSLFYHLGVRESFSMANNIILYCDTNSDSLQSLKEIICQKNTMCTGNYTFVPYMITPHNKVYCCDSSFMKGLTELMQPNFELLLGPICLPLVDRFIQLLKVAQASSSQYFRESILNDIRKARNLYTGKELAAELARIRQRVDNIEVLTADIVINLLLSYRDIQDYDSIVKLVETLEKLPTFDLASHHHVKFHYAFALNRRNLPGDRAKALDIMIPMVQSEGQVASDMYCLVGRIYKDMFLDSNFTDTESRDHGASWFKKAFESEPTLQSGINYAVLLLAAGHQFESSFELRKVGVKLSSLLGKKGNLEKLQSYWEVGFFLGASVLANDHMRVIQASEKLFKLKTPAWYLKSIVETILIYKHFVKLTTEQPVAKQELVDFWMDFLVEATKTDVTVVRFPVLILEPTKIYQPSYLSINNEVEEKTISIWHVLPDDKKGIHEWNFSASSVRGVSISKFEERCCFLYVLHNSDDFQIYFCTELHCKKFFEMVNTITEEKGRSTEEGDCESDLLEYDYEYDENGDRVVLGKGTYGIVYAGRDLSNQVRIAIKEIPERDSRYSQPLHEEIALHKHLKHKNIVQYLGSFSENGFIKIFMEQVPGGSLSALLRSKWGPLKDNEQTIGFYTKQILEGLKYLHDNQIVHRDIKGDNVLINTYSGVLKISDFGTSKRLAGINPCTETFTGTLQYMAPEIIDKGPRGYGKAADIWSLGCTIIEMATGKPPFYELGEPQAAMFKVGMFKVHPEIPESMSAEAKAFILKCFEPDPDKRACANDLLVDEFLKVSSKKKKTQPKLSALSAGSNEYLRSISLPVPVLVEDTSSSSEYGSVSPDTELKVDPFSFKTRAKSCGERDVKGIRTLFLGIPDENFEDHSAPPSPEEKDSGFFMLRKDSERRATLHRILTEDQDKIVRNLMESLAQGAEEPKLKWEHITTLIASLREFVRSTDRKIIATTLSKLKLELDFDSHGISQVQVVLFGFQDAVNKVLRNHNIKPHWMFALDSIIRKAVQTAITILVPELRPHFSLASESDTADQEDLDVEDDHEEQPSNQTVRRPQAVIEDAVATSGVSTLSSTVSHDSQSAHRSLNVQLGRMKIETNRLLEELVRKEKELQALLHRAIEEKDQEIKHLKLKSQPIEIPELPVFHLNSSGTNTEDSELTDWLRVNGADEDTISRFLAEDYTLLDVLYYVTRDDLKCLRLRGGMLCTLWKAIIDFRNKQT
As to the kind of experiment: ASK1 kinase HTRF assay (HTRF KinEASE-STK, phosphorylation of biotinylated peptide substrate).
Conditions: not given
The format is biochemical. The essentials:
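HTRF KinEASE-STK read-out of biotinylated peptide phosphorylation. Compound incubated with 3 nM ASK1 and 1 uM STK-substrate-biotin in kinase buffer containing 5 mM MgCl2 and 1 mM DTT.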
Turning to `C[C@H](CO)n1cnnc1-c1cccc(NC(=O)Nc2cc(C(=O)N3CCOCC3)ccn2)n1` [Compound I-133], the EC50 was < 50 nM.

The assay is the same for the next values; noted with them: 3 nM ASK1 kinase, 1 uM STK-substrate-biotin, HTRF detection; read-out: EC50.
With `C[C@H](CO)n1cnnc1-c1cccc(NC(=O)Nc2cc(C(=O)N3CCCc4ccccc43)ccn2)n1` [Compound I-124], the EC50 was < 50 nM. Take `C[C@H](CO)n1cnnc1-c1cccc(NC(=O)Nc2cc(N3CCN(S(C)(=O)=O)CC3)ccn2)n1` [Compound I-103]: the EC50 was < 50 nM.

Take `C[C@H](CO)n1cnnc1-c1cccc(NC(=O)Nc2cc(C(=O)N3CCC(F)(F)CC3)ccn2)n1` [Compound I-144]: the EC50 is < 50 nM. As for `CC(C)n1cnnc1-c1cccc(NC(=O)Nc2ccc(-c3ccncc3)cn2)n1` [Compound I-090], the EC50 was < 50 nM. As for `CC(C)n1cnnc1-c1cccc(NC(=O)Nc2cc(-c3ccccc3)ccn2)n1` [Compound I-077], the EC50 is < 50 nM. Consider `CC(C)[C@H](N)C(=O)OC[C@@H](C)n1cnnc1-c1cccc(NC(=O)Nc2cc3ccccc3cn2)n1` [Compound I-062], for which the EC50 was < 50 nM. For the compound `C[C@H](CO)n1cnnc1-c1cccc(NC(=O)Nc2cc(N3CCC(N4CCOCC4)CC3)ccn2)n1` [Compound I-107], the EC50 was < 50 nM. As to `COc1ccnc(NC(=O)Nc2cccc(-c3nncn3C(C)C)n2)c1` [Compound I-052], the EC50 was < 50 nM. With `CC(C)n1cnnc1-c1cccc(NC(=O)Nc2ncccc2C(F)(F)F)n1` [Compound I-193], the EC50 was < 50 nM. Regarding `CC(C)n1cnnc1-c1cccc(NC(=O)Nc2ccc(F)cn2)n1` [Compound I-188], the EC50 is < 50 nM. Consider `CC(C)n1cnnc1-c1cccc(NC(=O)Nc2cc(Cl)ccn2)n1` [Compound I-181], for which the EC50 is < 50 nM. On to `COc1ccnc(NC(=O)Nc2cccc(-c3nncn3[C@H](C)CO)n2)c1` [Compound I-053], for which the 50% effective concentration (EC50) was < 50 nM. With `CC(C)n1cnnc1-c1cccc(NC(=O)Nc2cc(S(=O)(=O)N3CCOCC3)ccn2)n1` [Compound I-207], the EC50 was < 50 nM.

Turning to `C[C@H](CO)n1cnnc1-c1cccc(NC(=O)Nc2cc(Cl)ccn2)n1` [Compound I-182], the EC50 is < 50 nM.

For the compound `CC(C)n1cnnc1-c1cccc(NC(=O)Nc2ccc([N+](=O)[O-])cn2)n1` [Compound I-210], the concentration giving a half-maximal response (EC50) is < 50 nM.

Consider `C[C@H](CO)n1cnnc1-c1cccc(NC(=O)Nc2cc(C(=O)N3CCC[C@@H]4CCCC[C@H]43)ccn2)n1` [Compound I-126], for which the EC50 was < 50 nM. The same measure, in the same setting: with `CNc1ccnc(NC(=O)Nc2cccc(-c3nncn3C(C)C)n2)c1` [Compound I-190] the figure was < 50 nM; with `CC1CN(c2ccc(N3CCN(c4cccc(-c5nncn5C(C)C)n4)C3=O)nc2)CCO1` (stereo not shown) [Compound V-17], < 50 nM; with `CC(C)n1cnnc1-c1cccc(NC(=O)Nc2cc(C(=O)Nc3ccc4ccccc4c3)ccn2)n1` [Compound I-154], < 50 nM. Take `CC(C)n1cnnc1-c1cccc(NC(=O)Nc2cc(C3CCCC3)ccn2)n1` [Compound I-048]: the EC50 was < 50 nM. As for `CC(C)n1cnnc1-c1cccc(NC(=O)Nc2ncccc2C(=O)O)n1` [Compound I-201], the EC50 was 50 to 500 nM. Same read-out and setting: with `CC(C)n1cnnc1-c1cccc(NC(=O)Nc2cc(C(=O)N3CCCC[C@H]3C)ccn2)n1` [Compound I-120] the figure was < 50 nM. As for `COc1cccnc1NC(=O)Nc1cccc(-c2nncn2C(C)C)n1` [Compound I-055], the EC50 was < 50 nM. The same measure, in the same setting: with `C[C@H](CO)n1cnnc1-c1cccc(N2CCN(c3ccc(C(=O)N4CCNCC4)cn3)C2=O)n1` [Compound V-27] the figure was < 50 nM. In the case of `CC(C)n1cnnc1-c1cccc(NC(=O)Nc2ccc(N3CCCC3)cn2)n1` [Compound I-165], the EC50 was < 50 nM. Turning to `CC(C)n1cnnc1-c1cccc(NC(=O)Nc2cc(NC(=O)c3ccccc3)ccn2)n1` [Compound I-004, N-(2-(3-(6-(4-Isopropyl-4H-1,2,4-triazol-3-yl)pyridin-2-yl)ureido)pyridin-4-yl)benzamide], the EC50 is < 50 nM. With `CC(C)n1cnnc1-c1cccc(NC(=O)Nc2cc(C(=O)N3CCC(F)(F)CC3)ccn2)n1` [Compound I-143], the EC50 is < 50 nM. As for `CC(C)n1cnnc1-c1cccc(NC(=O)Nc2cc(C(=O)N3CCC(C)(O)CC3)ccn2)n1` [Compound I-138], the EC50 was < 50 nM. Same read-out and setting: with `CC(=O)OC[C@@H](C)n1cnnc1-c1cccc(NC(=O)Nc2cc3ccccc3cn2)n1` [Compound I-061] the figure was 50 to 500 nM. Regarding `CC(C)n1cnnc1-c1cccc(NC(=O)Nc2cc(N3CCN(CCO)CC3)ccn2)n1` [Compound I-101], the EC50 is < 50 nM. Regarding `CC(C)n1cnnc1-c1cccc(NC(=O)Nc2cc(O)ccn2)n1` [Compound I-073], the EC50 fell in the range of 50 to 500 nM. `CC(C)n1cnnc1-c1cccc(NC(=O)Nc2cc(C(=O)N3C4CCCC3CC4)ccn2)n1` [Compound I-149]: the EC50 was < 50 nM. The same measure, in the same setting: with `CC(C)n1cnnc1-c1cccc(NC(=O)Nc2cc(S(=O)(=O)Nc3ccccc3)ccn2)n1` [Compound I-014, 1-[4-(Phenylsulfamoyl)pyridin-2-yl]-3-[6-[4-(propan-2-yl)-4H-1,2,4-triazol-3-yl]pyridin-2-yl]urea] the figure was < 50 nM. `CC(C)n1cnnc1-c1cccc(NC(=O)Nc2ccc(-n3cnc(C4CC4)c3)cn2)n1` [Compound I-169]: the EC50 is < 50 nM. On to `CC(C)n1cnnc1-c1cccc(NC(=O)Nc2cc(C(=O)Nc3ccccc3)ccn2)n1` [Compound I-152], for which the EC50 is < 50 nM. On to `C[C@H](CO)n1cnnc1-c1cccc(-n2ccn(-c3ccc(N4CCOCC4)cn3)c2=O)n1` [III-10], for which the EC50 is < 50 nM. As for `CC(C)n1cnnc1-c1cccc(NC(=O)Nc2ccc(-c3ccccc3)cn2)n1` [Compound I-076], the EC50 was < 50 nM. Consider `CC(C)n1cnnc1-c1cccc(NC(=O)Nc2cccc(-c3nncn3C(C)C)n2)n1` [Compound I-171], for which the EC50 fell in the range of 50 to 500 nM. On the same count and under the same terms, with `COCC(C)n1cnnc1-c1cccc(NC(=O)Nc2ccccn2)n1` (stereo not shown) [Compound I-031] the figure was 50 to 500 nM. In the case of `CC(C)(C)n1cnnc1-c1cccc(NC(=O)Nc2cc(C(=O)N3CCCCC3)ccn2)n1` [Compound I-008, 3-[6-(4-tert-Butyl-4H-1,2,4-triazol-3-yl)pyridin-2-yl]-1-[4-(piperidine-1-carbonyl)pyridin-2-yl]urea], the EC50 was < 50 nM. Turning to `CC(C)n1cnnc1-c1cccc(-n2ccn(-c3ccc(N4CCNCC4)cn3)c2=O)n1` [III-04, 1-(6-(4-Isopropyl-4H-1,2,4-triazol-3-yl)pyridin-2-yl)-3-(5-(piperazin-1-yl)pyridin-2-yl)-1H-imidazol-2(3H)-one], the EC50 is < 50 nM.

Take `CC(C)n1cnnc1-c1cccc(NC(=O)Nc2cc(C(=O)N3CCC4(CCCCC4)CC3)ccn2)n1` [Compound I-128]: the EC50 is < 50 nM. The same measure, in the same setting: with `C[C@H](CO)n1cnnc1-c1cccc(-n2ccn(-c3ccc(-c4ccccc4)cn3)c2=O)n1` [III-07] the figure was < 50 nM; with `Cc1cccnc1NC(=O)Nc1cccc(-c2nncn2C(C)C)n1` [Compound I-039], < 50 nM; with `CC(C)n1cnnc1-c1cccc(NC(=O)Nc2cc(C(=O)N3CCC(C)(C)CC3)ccn2)n1` [Compound I-117], < 50 nM. As to `CC(C)n1cnnc1-c1cccc(NC(=O)Nc2ncccc2Cl)n1` [Compound I-180], the EC50 is < 50 nM. With `CC(C)n1cnnc1-c1cccc(N2CCN(c3ccc(-c4ccncc4)cn3)C2=O)n1` [Compound V-07], the EC50 was < 50 nM.

Consider `CC(C)n1cnnc1-c1cccc(NC(=O)Nc2ncccc2OCc2ccccc2)n1` [Compound I-070], for which the EC50 is < 50 nM. The same measure, in the same setting: with `CC(=O)N1CCN(c2ccnc(NC(=O)Nc3cccc(-c4nncn4C(C)C)n3)c2)CC1` [Compound I-104] the figure was < 50 nM; with `CC(C)n1cnnc1-c1cccc(NC(=O)Nc2cccc(C(F)(F)F)n2)n1` [Compound I-196], < 50 nM. Regarding `Cc1cnc(NC(=O)Nc2cccc(-c3nncn3C(C)C)n2)cc1C` [Compound I-043], the EC50 is < 50 nM.

Usually EC50 stands for the concentration at which the effect is half-maximal.
